The text below walks through data of patent US4409233A, “Highly concentrated preparations of dopa compounds” (Sankyo Company, Limited, priority 1978, dated 1983).

≈ marks a conversion by molar mass, not a printed value.

A short description of data set [1]: Solubility of dopa compounds in water. The format is physicochemical. Conditions: 50 mg of dopa.
For data set [2] the following is noted: cited from earlier work.

In the case of `NC(Cc1ccc(O)c(O)c1)C(=O)O` (stereo not drawn) [dopa, β-(3,4-dihydroxyphenyl)-α-alanine], the “volume of water necessary to dissolve the minimal dose of dopa” value in data set [1] stood at 20 mL. In addition, in data set [2], the solubility in water is 2500 µg/mL (≈ 12.7 mM) and the “solubility in water (in words)” value is reported as “poor solubility in water”.
Take `C[C@](N)(Cc1ccc(O)c(O)c1)C(=O)O` [methyldopa, L-3-(3,4-dihydroxyphenyl)-2-methylalanine]: in data set [2], the “solubility in water (in words)” value is reported as “poor solubility in water”.
